Experimental findings from PMC8315801, “The fluoride permeation pathway and anion recognition in Fluc family fluoride channels” (eLife, 2021) are described below.

Common to all, as to assay: biochemical
Assay [1] deals with Fluc-Bpe (Bordetella pertussis, UniProt Q7VYU0, R29K). The source says: planar lipid bilayer, block of fluoride current, two-site fit on Fluc-Bpe
Assay [2] has as its target Fluc-Bpe (Bordetella pertussis, UniProt Q7VYU0, E88Q/R29K/S83C). From the text:
(§1) planar lipid bilayer, block of fluoride current, oriented channels, single-site fit on Fluc-Bpe

The target of assay [3] is Fluc-Bpe (Bordetella pertussis, UniProt Q7VYU0, R29K/S83C).
Sequence of Fluc-Bpe (Bordetella pertussis, UniProt Q7VYU0, R29K/S83C) (Q7VYU0 whole entry R29K/S83C): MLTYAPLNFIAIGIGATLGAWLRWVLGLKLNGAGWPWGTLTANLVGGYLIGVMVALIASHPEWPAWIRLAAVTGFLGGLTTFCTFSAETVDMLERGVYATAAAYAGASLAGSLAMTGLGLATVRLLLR
Excerpt: as §1

Sequence of Fluc-Bpe (Bordetella pertussis, UniProt Q7VYU0, R29K) (Q7VYU0 whole entry R29K): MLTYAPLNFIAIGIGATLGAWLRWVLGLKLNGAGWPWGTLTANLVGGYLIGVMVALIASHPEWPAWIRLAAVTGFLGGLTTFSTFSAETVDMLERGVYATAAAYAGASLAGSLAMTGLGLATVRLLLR
Sequence of Fluc-Bpe (Bordetella pertussis, UniProt Q7VYU0, E88Q/R29K/S83C) (Q7VYU0 whole entry E88Q/R29K/S83C): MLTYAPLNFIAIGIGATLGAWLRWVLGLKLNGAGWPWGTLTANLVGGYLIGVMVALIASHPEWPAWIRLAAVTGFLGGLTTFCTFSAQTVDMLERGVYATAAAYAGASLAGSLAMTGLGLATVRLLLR

In assay [1], `N#CS` [SCN^-] returned a Ki of 9 mM.
In turn, `O=[N+]([O-])O` [NO3^-] gave a Ki in assay [1] of 45 mM.
As for `N#CO` [OCN^-], the Ki in assay [2] came to 48.9 mM; in assay [3], 7.9 mM; in assay [1] it was 6.8 mM.
